Measurements taken from patent US11628164B2, “Composition containing salsolinol for treating liver cancer” (SUNGSHIN WOMEN'S UNIVERSITY R&DB FOUNDATION, priority 2020, dated 2023).

How the values were obtained:
[1] = system: AKT, p-AKT, Annexin A2, PCNA in liver tissue; assay: Western blotting of liver tissue, DEN-induced liver cancer mouse model; format: in vivo, C57BL/6 mouse; details: DEN+SAL liver tissue
Description: (§1) 5×10^5 cells of Human-derived liver cancer cell lines SK-Hep1 and SNU387 are cultured in a 60 mm culture vessel, the cells are lysed, and proteins are separated through electrophoresis. And after that, western blotting analysis is performed by using a specific antibody. After treatment of the SK-Hep1 and the SNU387 with the salsolinol at different times and concentrations, the cells are washed with PBS, and the cells are scraped off with a scraper. The cells are lysed in a lysis buffer for 1 hour, and after that, centrifuge separation is performed at 13,000 rpm for 15 minutes at 4° C., and only the supernatant is extracted. 20 μg of protein contained in the supernatant is electrophoresed on SDS-polyacrylamide gel, and after that, transferred to a PVDF membrane for 2 hours. The sample reacts with antibodies pSTAT3(#9145), STAT3(#9132), PCNA(#2586), 15-PGDH(cayman No. 160615), p53(sc-126), p53(sc-99), pAKT(#9271), AKT(#9272), Annexin A2(#8235), and GAPDH(sc-32233). The protein is detected by using an enhanced chemiluminascence (ECL) detection solution.
The salsolinol (200 mg/kg) is administered for 6 months through intraperitoneal injection three times per week from the time when the DEN-induced liver cancer mouse model (male) became 7 weeks of age. After the mouse is sacrificed, the experiment is performed.
The normal mouse, the DEN-induced liver cancer mouse model, and the DEN-induced liver cancer mouse model administered with the salsolinol are sacrificed, the livers are excised, the liver tissues are crushed, and the proteins are extracted. After separating the extracted protein through electrophoresis, the expression levels of tumor-related genes AKT, p-AKT, Annexin A2, and PCNA and the changes in the expression levels are analyzed by using a Western blotting method (refer to FIG. 9).

SK-Hep1 = assay: MTT cell viability, male-derived liver cancer cell line; format: cell-based, human; details: SK-Hep1, 5-100 μM salsolinol
Description: SK-Hep1 and SNU387, which are human-derived hepatoma cell lines, are distributed from Korea Cell Line Bank. […] The SK-Hep1 and the SNU387 are cultured in a medium including a minimum essential medium (Dulbecco Modified Eagle Medium, DMEM) (Gibco BRL grand Island, N.Y., USA) and in a medium containing 10% FBS (HyClone Lab, Inc, Logan, Utah, USA), 100 U/ml penicillin. (penicillin) and 100 μg/ml streptomycin (Gibco, Grand Island, N.Y., USA) at 37° C. in an atmosphere of 5% CO2. The cultured liver cancer cell lines (SK-HEP1 and SNU387) are dispensed into each well of a 48-well plate so as to have a concentration of 5×10^4 cells. After culturing for 24 hours, the sample is treated with the salsolinol for 24 hours, 48 hours, and 72 hours so as to have a concentration of 5 μM, 15 μM, 25 μM, 50 μM, or 100 μM. After that, 250 μl of 0.5 mg/ml MTT solution (Sigma, St Louis, Mo., US) is added to each well and reacted at 37° C. for 1 hour. After removing the solution, MTT-formazione is lysed and washed with 250 μl of DMSO (Dimethylsulfoxide, Duksan, Gyeonggi, Korea), and then, the absorbance at 540 nm is measured by using a SpectraMax 190 microplate plate reader (Molecular Devices, LCC. San Jose, Calif.). […]

[2] = system: STAT3, pSTAT3, PCNA, 15-PGDH, p53 in SNU387; assay: Western blotting of tumor-related genes in SNU387; format: cell-based, human; details: SNU387, 25 μM salsolinol, 72 hours
Description: as §1, with “solution. As a result of the above-described experiment, it is confirmed that the activity of cells in the liver cancer cell lines SK-Hep1 is decreased by the salsolinol, and particularly, the specificity for the liver cancer cell lines is confirmed. In order to check the correlation between the decrease in the activity of cells of the liver cancer cell lines by the salsolinol and the gene expression, the SK-Hep1 which is a liver cancer cell line and the SNU387 which is a liver cancer cell line are cultured, and the samples are treated with 25 μM of salsolinol d for 72 hours. After the treatment, changes in the expression levels of tumor-related genes such as STAT3, pSTAT3, PCNA, 15-PGDH, and p53 are checked (refer to FIG. 4).” for “solution.”

[3] = system: STAT3, pSTAT3, PCNA, 15-PGDH, p53 in SK-Hep1; assay: Western blotting of tumor-related genes in SK-Hep1; format: cell-based, human
Description: as §1, with “solution. As a result of the above-described experiment, it is confirmed that the activity of cells in the liver cancer cell lines SK-Hep1 is decreased by the salsolinol, and particularly, the specificity for the liver cancer cell lines is confirmed. In order to check the correlation between the decrease in the activity of cells of the liver cancer cell lines by the salsolinol and the gene expression, the SK-Hep1 which is a liver cancer cell line and the SNU387 which is a liver cancer cell line are cultured, and the samples are treated with 25 μM of salsolinol d for 72 hours. After the treatment, changes in the expression levels of tumor-related genes such as STAT3, pSTAT3, PCNA, 15-PGDH, and p53 are checked (refer to FIG. 4).” for “solution.”

[4] = SK-Hep1, 25 μM salsolinol, 72 hours

For `CC1NCCc2cc(O)c(O)cc21` (stereo not shown) [salsolinol, 6,7-dihydroxy-1-methyl-1,2,3,4-tetrahydroisoquinoline], the “Annexin A2 expression level” value [1] was “decreased”, the PCNA expression level [1] was “decreased to the level of the normal mouse” and the “degree of phosphorylation of AKT (p-AKT)” value [1] was “decreased to the level of the normal mouse”. The “cell viability (MTT)” value (SK-Hep1; 48 and 72 hours) was “degree of decrease in cell viability according to the treatment concentration of salsolinol increases”, the “cell viability (MTT)” value (SK-Hep1; 24 hours) was “cell viability decreases as the concentration of salsolinol increases” and the 15-PGDH expression level [2] was “remains constant”. For the same compound, the PCNA expression level [2] was “rather increased”, the STAT3 expression level [2] was “remains constant” and the p53 expression level [2] was “not changed”. For the same compound, the pSTAT3 expression level [2] was “not decreased”, the 15-PGDH expression level [3, 4] was “increased” and the PCNA expression level [3, 4] was “slightly decreased”. The STAT3 expression level [3, 4] was “remains constant”, the p53 expression level [3, 4] was “increased” and the pSTAT3 expression level [3, 4] was “decreased”. For the same compound, the “phosphorylation of STAT3 over time” value ([3]; male-derived liver cancer cell lines, time course after treatment) was “rapidly increased initially, but it is rapidly decreased after 24 hours”.
